According to US10175256B2, “Compositions and methods utilizing lysophosphatidylcholine scaffolds” (National University Of Singapore, priority 2013, dated 2019):
Entries after “also recorded” stand apart in the source; their conditions may differ. One block for each molecule: values may come before it.

How the values were obtained:
Mfsd2a [1] = biological target: T1, Mfsd2a (Mus musculus, UniProt Q9DA75); assay: Competition transport assay with LPC-[3H]palmitate as ligand; type: cell-based; design: expressed in transfected cells; host or cells: HEK293; settings: 25 μM LPC-[3H]palmitate; for competition of foscholines with LPC-[3H]palmitate: 250 μM competitor, 15 mins; for competition for transport/uptake of LPC-[3H]palmitate: 10-fold molar excess (250 μM) competitor, 30 mins (PAF 15 mins)
T1 sequence (Q9DA75 1-534): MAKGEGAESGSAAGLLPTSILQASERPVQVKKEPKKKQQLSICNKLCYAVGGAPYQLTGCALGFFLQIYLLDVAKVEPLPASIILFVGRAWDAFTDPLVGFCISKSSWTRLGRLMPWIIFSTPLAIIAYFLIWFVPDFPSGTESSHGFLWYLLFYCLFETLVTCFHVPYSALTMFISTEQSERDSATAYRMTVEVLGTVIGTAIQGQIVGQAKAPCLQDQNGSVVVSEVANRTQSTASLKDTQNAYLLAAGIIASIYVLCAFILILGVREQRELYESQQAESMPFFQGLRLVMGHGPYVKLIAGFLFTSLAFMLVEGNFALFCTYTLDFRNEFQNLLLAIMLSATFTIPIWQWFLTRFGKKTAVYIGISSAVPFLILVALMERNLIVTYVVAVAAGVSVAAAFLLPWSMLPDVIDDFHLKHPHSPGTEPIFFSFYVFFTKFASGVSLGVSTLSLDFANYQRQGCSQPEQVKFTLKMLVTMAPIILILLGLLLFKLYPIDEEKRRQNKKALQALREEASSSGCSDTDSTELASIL
Procedure: Briefly, 24 h post transfection of HEK293 cells with pcDNA3.1Mfsd2a (WT), pcDNA3.1Mfsd2aD92A (D92A), pcDNA3.1Mfsd2aD96A, or pcDNA3.1 (mock) plasmids were washed once with serum-free DMEM medium before addition of a mixture of 25 μM radiolabeled LPC-palmitate and 250 μM cold competitors, which were dissolved in 12% BSA. Total BSA concentration was kept constant in samples with or without cold competitors. Assays were performed at 37° C. for 30 mins. Competition assays with other LPC analogs such as foscholine detergents, and PAF were performed under the same conditions except for 15 mins. The reduced reaction time was necessary in order to limit potential negative effects of detergents and bioactive lipids on cell survival. All assays were performed in 12 well-plates with triplicates and at 37° C.
We next sought to determine ligand specificity and the chemical features of the LPC ligands that are required for transport by Mfsd2a.

mouse Mfsd2a [2] = biological target: T2, mouse Mfsd2a (Mus musculus, UniProt Q9DA75); assay: TLC analysis of phospholipids (bio-incorporation of LPC into PC); type: cell-based
T2 construct: expressed in transfected cells; host or cells: HEK293
T2 sequence (Q9DA75 1-534): T1 sequence (Q9DA75 1-534)
Procedure: HEK293 cells overexpressing with pcDNA3.1Mfsd2a (WT), pcDNA3.1Mfsd2aD92A (D92A), pcDNA3.1Mfsd2aD96A, or pcDNA3.1 (mock) plasmids or human Mfsd2a (in Sport6 plasmid) were washed once with serum-free DMEM medium before incubation with 50 μM radiolabeled LPC [^14C]oleate, LPC [^14C]DHA or with 50 μM TopFluor-LPC and NBD-LPC. Lipids were extracted twice with HIP buffer for 30 mins. Lipids were dried with nitrogen stream and reconstituted in chloroform and spotted on TLC plates (Milipore). Solvent for phospholipid separation was chloroform/methanol/ammonia solution (25%) (50:25:6, per volume). TLC plates of radiolabeled phospholipids were dried for 30 mins and exposed overnight to Phosphorscreens and scanned with Typhoon FLA 9000 scanner (Agilent). TLC plates of fluorescent phospholipids were scanned with Typhoon FLA 9000 scanner and quantified using Imagequant software.

mouse Mfsd2a [3] = biological target: T2, mouse Mfsd2a; assay: In vitro transport (uptake) of radiolabeled and fluorescent LPCs in HEK293 cells overexpressing Mfsd2a; type: cell-based; settings: for comparison of Mfsd2a-mediated uptake (capacity to transport): HEK293 cells expressing Mfsd2a
Procedure: Uptake assays of radiolabeled LPCs or fluorescent LPCs were tested using HEK293 cells overexpressing Mfsd2a and mutants constructs. Briefly, HEK293 cells at 90-95% confluency were transfected using LIPOFECTAMINE 2000 (Invitrogen) with pcDNA3.1Mfsd2a (WT), pcDNA3.1Mfsd2aD92A (D92A), pcDNA3.1Mfsd2aD96A (D96A), or pcDNA3.1 (mock) plasmids. Uptake assays were performed after 24 hours of transfections. Prior to ligand incubation, HEK293 transfected cells were washed with serum-free DMEM before assays. For concentration and time dependent assays, radiolabeled LPCs were diluted in pre-warmed DMEM media. For sodium dependent assay, radiolabeled LPCs were diluted in transport buffer (5 mM KCl, 10 mM Hepes, pH 7.4) with 150 mM NaCl or 150 mM choline chloride. For sodium concentration dependent assays, any reductions in the concentration of NaCl were replaced by choline chloride in order to maintain a constant cation molarity of 150 mM. All assays were performed in 12 well-plates with triplicates and at 37° C.

Mfsd2a [4] = biological target: T1, Mfsd2a; assay: In vivo transport of radiolabeled, fluorescent LPCs and unesterified DHA in Mfsd2a KO and wild-type mice; design: from tissue; host or cells: living mice; brain (blood-brain barrier endothelium), liver, heart; fetal brain
Procedure: Male and female mice of age of 6-8 weeks were IV injected with 75 μl of 20 mM radiolabeled LPC-[…], 100 μl of 10 mM LPC-[^14C]DHA/BSA complex or 82 μl of 12.2 mM [^14C]DHA/BSA complex in a total volume of 150 μl of phosphate-buffered saline. At 2 hours post injection, mice were anesthetized and perfused for 5 mins with PBS containing 0.5% BSA in order to remove blood and lipid tracer bound to the brain vasculature. Tissues were harvested for lipid extraction. For lipid extraction, tissues were weighed and similar amounts of tissues were homogenized in chloroform/methanol. Lipids from the organic phase were mixed with scintillant and scintillation counted. Similar experiments were also performed with an injection of 300 μg NBD-LPC/BSA or 300 μg TopFluor-LPC/BSA complex per mouse. In this experiment, mice were perfused for 5 mins with PBS followed 15 mins perfusion with 4% paraformaldehyde (PFA) for tissue fixation. Brain sections of WT and KO with a thickness of 40 μm were prepared and scanned using green fluorescence mode in Typhoon FLA 9000 scanner (Agilent). NBD-LPC accumulation was expressed as fluorescence of each section per its area. Dietary DHA transport from mother to fetus was also measured using [^14C]DHA/BSA complex. Pregnant females at e18.5 was gavaged with bolus of [^14C]DHA/BSA complex (200 μl of 10 mM [^14C]DHA/BSA/mouse). Brain of fetuses were collected 20 hours post-gavage and weighed. Lipid extraction and radioactivity were performed as described above.

Molecule: CCCCCCCCOP(=O)([O-])OCC[N+](C)(C)C [Fos-8]
competition of foscholines with LPC-[3H]palmitate (Mfsd2a [1]): did not compete

Molecule: CCCCCCCCCCOP(=O)([O-])OCC[N+](C)(C)C [Fos-10]
competition of foscholines with LPC-[3H]palmitate (Mfsd2a [1]): did not compete

Molecule: CCCCCCCCCCCCOP(=O)([O-])OCC[N+](C)(C)C [Fos-12]
competition of foscholines with LPC-[3H]palmitate (Mfsd2a [1]): did not compete

Molecule: CCCCCCCCCCCCCCCCCC(=O)OC[C@@H](O)COP(=O)([O-])OCC[N+](C)(C)C [LPC-18:0]
effect of cold LPC on transport of NBD-LPC (mouse Mfsd2a [2]; 10-fold molar excess of competitor): suppressed

Molecule: CCCCCCCCCCCCCCCC(=O)OC[C@@H](O)COP(=O)([O-])OCC[N+](C)(C)C [LPC-[^3H]palmitate, 1-palmitoyl 2-lysophosphocholine]
comparison of Mfsd2a-mediated uptake (capacity to transport) (mouse Mfsd2a [3]): highest capacity to transport LPC-DHA, followed by LPC-oleate, and LPC-palmitate

Molecule: CCCCCCCCCCCCC/C=C/[C@@H](O)[C@@H](N)COP(=O)([O-])OCC[N+](C)(C)C [Lysosphingomyelin]
competition for transport/uptake of LPC-[3H]palmitate (Mfsd2a [1]): competed
competition for transport/uptake of LPC-[3H]palmitate (Mfsd2a [1]; listed as lysosphingomyelin): strong competition

Molecule: C[N+](C)(C)CCOP(=O)([O-])OC[C@H](O)COC(=O)CCCCCCCCCCCNc1ccc([N+](=O)[O-])c2nonc12 [NBD-LPC]
uptake/transport of fluorescent lysolipid by cells expressing wild-type Mfsd2a (mouse Mfsd2a [3]; HEK293 cells, vs mock, D92A, D96A): transported by Mfsd2a; also recorded: significantly enhanced uptake activity
brain uptake (fluorescence of brain sections) in KO compared with wild-type (Mfsd2a [4]; 300 μg fluorescent LPC/BSA complex i.v.): significantly reduced
bio-incorporation of fluorescent LPC into phospholipids (PC) (mouse Mfsd2a [2]; HEK293 cells, 50 μM, TLC): bio-incorporated into membrane phospholipids

Molecule: CCCCCCCCCCCCCCCCOC[C@@H](O)COP(=O)([O-])OCC[N+](C)(C)C [lysoplatelet activating factor]
competition for transport/uptake of LPC-[3H]palmitate (Mfsd2a [1]): strong competitors

Molecule: lysophosphatidic acid [LPA]
competition for transport/uptake of LPC-[3H]palmitate (Mfsd2a [1]): non-competitive

Molecule: lysophosphatidylserine [LPS]
competition for transport/uptake of LPC-[3H]palmitate (Mfsd2a [1]): weak competition

Molecule: platelet activating factor
competition for transport/uptake of LPC-[3H]palmitate (Mfsd2a [1]): strong competitors
competition for transport/uptake of LPC-[3H]palmitate (Mfsd2a [1]; listed as PAF): strong competition

Second part, led by results:

comparison of Mfsd2a-mediated uptake (capacity to transport) (mouse Mfsd2a [3]): highest capacity
uptake of radiolabeled LPC by cells expressing Mfsd2a relative to control cells (mouse Mfsd2a [3]; HEK293 cells, wild-type Mfsd2a vs mock, LPC/BSA, 30 mins): enhanced concentration-dependent uptake
reduction in brain uptake in Mfsd2a KO mice compared with wild-type (Mfsd2a [4]; i.v. injection, 2 hrs post-injection): more than 90%
uptake in peripheral tissues of KO mice compared with wild-type (Mfsd2a [4]; i.v. injection, liver and heart, 2 hrs): not decreased
brain uptake, unesterified DHA compared with LPC-DHA (Mfsd2a [4]; wild-type brain, same amount injected i.v., 2 hrs): far greater
Molecule: CCC=CCC=CCC=CCC=CCC=CCC=CCCC(=O)OC[C@@H](O)COP(=O)([O-])OCC[N+](C)(C)C [LPC-[^14C]DHA, 1-docosahexaenoyl 2-lysophosphocholine]
conversion of transported LPCs into PCs (mouse Mfsd2a [2]; HEK293 cells expressing Mfsd2a, radiolabeled LPC, TLC): rapid conversion of transported LPCs into PCs

competition of foscholines with LPC-[3H]palmitate (Mfsd2a [1]): strong competition
Molecule: CCCCCCCCCCCCCCCCOP(=O)([O-])OCC[N+](C)(C)C [Miltefosine]

competition for transport/uptake of LPC-[3H]palmitate (Mfsd2a [1]): not a competitor
Molecule: C[N+](C)(C)CCOP(=O)([O-])OC[C@H](O)CO [glycerophosphatidylcholine, alpha-glycerylphosphocholine]

competition for transport/uptake of LPC-[3H]palmitate (Mfsd2a [1]): not a competitor
competition for transport/uptake of LPC-[3H]palmitate (Mfsd2a [1]; listed as sphingosine 1-phosphate): did not compete
Molecule: CCCCCCCCCCCCC/C=C/[C@@H](O)[C@@H](N)COP(=O)(O)O [sphingosine-1-phosphate]

competition for transport/uptake of LPC-[3H]palmitate (Mfsd2a [1]): weak competition
Molecule: lysophosphatidylethanolamine [LPE]
